Results published in patent US20250223259A1, “PROTEASE INHIBITORS FOR TREATING OR PREVENTING CORONAVIRUS INFECTION” (Merck Sharp & Dohme LLC, priority 2022, published 2025).

biological target: SARS2 coronavirus 3CL protease (Severe acute respiratory syndrome coronavirus 2 (2019-nCoV) (SARS-CoV-2), UniProt P0DTD1); experiment: SARS2 Coronavirus 3CL Protease Assay (FRET); format: biochemical; settings: SARS2 3CLPro FRET assay; 5 nM enzyme, 30 min pre-incubation with compound, 15 uM peptide substrate, 4 h room temperature

| Structure (SMILES) | IC50 |
| --- | --- |
| COC(=O)N[C@@H](C)C(=O)N1CC2(CCCCC2)C[C@H]1C(=O)N[C@@H](CCC(C)(F)F)C(=O)C(=O)NC1CC1 [Example 14, Methyl ((S)-1-((S)-3-(((S)-1-(cyclopropylamino)-6,6-difluoro-1,2-dioxoheptan-3-yl)carbamoyl)-2-azaspiro[4.5]decan-2-yl)-1-oxopropan-2-yl)carbamate] | 69 nM |
| CC(C)[C@H](NC(=O)OC(C)(C)C)C(=O)N1CC2(CCCCC2)C[C@H]1C(=O)N[C@@H](CCC(C)(F)F)C(=O)C(=O)NC1CC1 [Example 15, Tert-butyl ((S)-1-((S)-3-(((S)-1-(cyclopropylamino)-6,6-difluoro-1,2-dioxoheptan-3-yl)carbamoyl)-2-azaspiro[4.5]decan-2-yl)-3-methyl-1-oxobutan-2-yl)carbamate] | 113 nM |
| COC(=O)N[C@H](C(=O)N1CC2(CCCCC2)C[C@H]1C(=O)N[C@@H](CCC(C)(F)F)C(=O)C(=O)NC1CCCCC1)C(C)(C)C [Example 16, Methyl ((S)-1-((S)-3-(((S)-1-(cyclohexylamino)-6,6-difluoro-1,2-dioxoheptan-3-yl)carbamoyl)-2-azaspiro[4.5]decan-2-yl)-3,3-dimethyl-1-oxobutan-2-yl)carbamate] | 136 nM |
| COC(=O)N[C@H](C(=O)N1CC2(CCCCC2)C[C@H]1C(=O)N[C@@H](CCC(C)(F)F)C(=O)C(=O)NCCN1CCOCC1)C(C)(C)C [Example 17, Methyl ((S)-1-((S)-3-(((S)-6,6-difluoro-1-((2-morpholinoethyl)amino)-1,2-dioxoheptan-3-yl)carbamoyl)-2-azaspiro[4.5]decan-2-yl)-3,3-dimethyl-1-oxobutan-2-yl)carbamate] | 137 nM |
| COC(=O)N[C@H](C(=O)N1CC2(CCCCC2)C[C@H]1C(=O)N[C@@H](CCC(C)(F)F)C(=O)C(=O)NC(C)(C)C)C(C)(C)C [Example 18, Methyl ((S)-1-((S)-3-(((S)-1-(tert-butylamino)-6,6-difluoro-1,2-dioxoheptan-3-yl)carbamoyl)-2-azaspiro[4.5]decan-2-yl)-3,3-dimethyl-1-oxobutan-2-yl)carbamate] | 42 nM |
| COC(=O)NC1(C(=O)N2CC3(CCCCC3)C[C@H]2C(=O)N[C@@H](CCC(C)(F)F)C(=O)C(=O)NC2CC2)CC1 [Example 19, Methyl (1-((S)-3-(((S)-1-(cyclopropylamino)-6,6-difluoro-1,2-dioxoheptan-3-yl)carbamoyl)-2-azaspiro[4.5]decane-2-carbonyl)cyclopropyl) carbamate] | 497 nM |
| COC(=O)N[C@H](C(=O)N1CCC2(CC2)C[C@H]1C(=O)N[C@@H](CCC(C)(F)F)C(=O)C(N)=O)C(C)(C)C [Example 20, Methyl ((S)-1-((S)-5-(((S)-1-amino-6,6-difluoro-1,2-dioxoheptan-3-yl)carbamoyl)-6-azaspiro[2.5]octan-6-yl)-3,3-dimethyl-1-oxobutan-2-yl)carbamate] | 7.4 nM |
| CNC(=O)C(=O)[C@H](CCC(C)(F)F)NC(=O)[C@@H]1CC2(CCN1C(=O)[C@@H](NC(=O)OC)C(C)(C)C)CC2 [Example 21, Methyl ((S)-1-((S)-5-(((S)-6,6-difluoro-1-(methylamino)-1,2-dioxoheptan-3-yl)carbamoyl)-6-azaspiro[2.5]octan-6-yl)-3,3-dimethyl-1-oxobutan-2-yl)carbamate] | 6.5 nM |
| CNC(=O)C(=O)[C@H](CCC(C)(F)F)NC(=O)[C@@H]1C[C@H](C(F)(F)F)CCN1C(=O)[C@@H](NC(=O)OC)C(C)(C)C [Example 22, Methyl ((S)-1-((2S,4R)-2-(((S)-6,6-difluoro-1-(methylamino)-1,2-dioxoheptan-3-yl)carbamoyl)-4-(trifluoromethyl)piperidin-1-yl)-3,3-dimethyl-1-oxobutan-2-yl)carbamate] | 10 nM |
| COC(=O)N[C@H](C(=O)N1C[C@@H]2CC(C)(C)[C@@H]2[C@H]1C(=O)N[C@@H](CCC(C)(F)F)C(=O)C(=O)NC1CC1)C(C)(C)C [Example 25, Methyl ((S)-1-((1R,2S,5R)-2-(((S)-1-(cyclopropylamino)-6,6-difluoro-1,2-dioxoheptan-3-yl)carbamoyl)-7,7-dimethyl-3-azabicyclo[3.2.0]heptan-3-yl)-3,3-dimethyl-1-oxobutan-2-yl)carbamate] | 8.7 nM |
| COC(=O)N[C@H](C(=O)N1C[C@@H]2CCCC[C@@H]2C[C@H]1C(=O)N[C@@H](CCC(C)(F)F)C(=O)C(=O)NC1CC1)C(C)(C)C [Example 26, Methyl ((S)-1-((3S,4aR,8aR)-3-(((S)-1-(cyclopropylamino)-6,6-difluoro-1,2-dioxoheptan-3-yl)carbamoyl)octahydroiso-quinolin-2(1H)-yl)-3,3-dimethyl-1-oxobutan-2-yl)carbamate] | 22 nM |
| CNC(=O)C(=O)[C@H](CCC(C)(F)F)NC(=O)[C@@H]1C[C@@H](C(F)(F)F)CN1C(=O)[C@@H](NC(=O)OC)C(C)(C)C [Example 27, Methyl ((S)-1-((2S,4R)-2-(((S)-6,6-difluoro-1-(methylamino)-1,2-dioxoheptan-3-yl)carbamoyl)-4-(trifluoromethyl)pyrrolidin-1-yl)-3,3-dimethyl-1-oxobutan-2-yl)carbamate] | 14 nM |
| COC(=O)N[C@H](C(=O)N1CCC2(CC2)C[C@H]1C(=O)N[C@@H](CCC(C)(F)F)C(=O)C(=O)NC1CC1)C(C)(C)C [Example 29, Methyl ((S)-1-((S)-5-(((S)-1-(cyclopropylamino)-6,6-difluoro-1,2-dioxoheptan-3-yl)carbamoyl)-6-azaspiro[2.5]octan-6-yl)-3,3-dimethyl-1-oxobutan-2-yl)carbamate] | 7.7 nM |
| COC(=O)N[C@H](C(=O)N1C[C@@H]2CCC[C@@H]2[C@H]1C(=O)N[C@@H](CCC(C)(F)F)C(=O)C(=O)NC1CC1)C(C)(C)C [Example 31, Methyl ((S)-1-((1S,3aR,6aS)-1-(((S)-1-(cyclopropylamino)-6,6-difluoro-1,2-dioxoheptan-3-yl)carbamoyl)hexahydrocyclo-penta[c]pyrrol-2(1H)-yl)-3,3-dimethyl-1-oxobutan-2-yl)carbamate] | 10 nM |
| COC(=O)N[C@H](C(=O)N1C[C@H]2[C@H](CCC2(F)F)[C@H]1C(=O)N[C@@H](CCC(C)(F)F)C(=O)C(=O)NC1CC1)C(C)(C)C [Example 33, Methyl ((S)-1-((1S,3aR,6aS)-1-(((S)-1-(cyclopropylamino)-6,6-difluoro-1,2-dioxoheptan-3-yl)carbamoyl)-4,4-difluorohexahydrocyclopenta[c]pyrrol-2(1H)-yl)-3,3-dimethyl-1-oxobutan-2-yl)carbamate] | 9.7 nM |
| CNC(=O)C(=O)[C@H](CCC(C)(F)F)NC(=O)[C@@H]1[C@H]2CCC(F)(F)[C@H]2CN1C(=O)[C@@H](NC(=O)OC)C(C)(C)C [Example 35, Methyl ((S)-1-((1S,3aR,6aS)-1-(((S)-6,6-difluoro-1-(methylamino)-1,2-dioxoheptan-3-yl)carbamoyl)-4,4-difluorohexahydrocyclopenta[c]pyrrol-2(1H)-yl)-3,3-dimethyl-1-oxobutan-2-yl)carbamate] | 8.2 nM |
| COC(=O)N[C@H](C(=O)N1C[C@H]2[C@@H]([C@H]1C(=O)N[C@@H](CCC(C)(F)F)C(=O)C(=O)NC1CC1)C(C)(C)C2(C)C)C(C)(C)C [Example 36, Methyl ((S)-1-((1R,2S,5S)-2-(((S)-1-(cyclopropylamino)-6,6-difluoro-1,2-dioxoheptan-3-yl)carbamoyl)-6,6,7,7-tetramethyl-3-azabicyclo[3.2.0]heptan-3-yl)-3,3-dimethyl-1-oxobutan-2-yl)carbamate] | 8.2 nM |
| COC(=O)N[C@H](C(=O)N1C[C@H]2[C@@H]([C@H]1C(=O)N[C@@H](CCC(C)(F)F)C(=O)C(=O)NC1CC1)C21CCCC1)C(C)(C)C [Example 38, Methyl ((S)-1-((1R,2S,5S)-2-(((S)-1-(cyclopropylamino)-6,6-difluoro-1,2-dioxoheptan-3-yl)carbamoyl)-3-azaspiro[bicyclo[3.1.0]hexane-6,1′-cyclopentan]-3-yl)-3,3-dimethyl-1-oxobutan-2-yl)carbamate] | 9.7 nM |
| CNC(=O)C(=O)[C@H](CCC(C)(F)F)NC(=O)[C@@H]1[C@@H]2[C@H](CN1C(=O)[C@@H](NC(=O)OC)C(C)(C)C)C2(C)C [Example 39, Methyl ((S)-1-((1R,2S,5S)-2-(((S)-6,6-difluoro-1-(methylamino)-1,2-dioxoheptan-3-yl)carbamoyl)-6,6-dimethyl-3-azabicyclo[3.1.0]hexan-3-yl)-3,3-dimethyl-1-oxobutan-2-yl)carbamate] | 12 nM |
| CNC(=O)C(=O)[C@H](CCC(C)(F)F)NC(=O)[C@@H]1[C@@H]2[C@H](CN1C(=O)[C@@H](NC(=O)OC)C(C)(C)C)C21CCOCC1 [Example 40, Methyl ((S)-1-((1R,2S,5S)-2-(((S)-6,6-difluoro-1-(methylamino)-1,2-dioxoheptan-3-yl)carbamoyl)tetrahydro-3-azaspiro[bicyclo[3.1.0]hexane-6,4′-pyran]-3-yl)-3,3-dimethyl-1-oxobutan-2-yl)carbamate] | 12 nM |
| COC(=O)N[C@H](C(=O)N1C[C@H]2[C@@H]([C@H]1C(=O)N[C@@H](CCC(C)(F)F)C(=O)C(N)=O)C(C)(C)C2(C)C)C(C)(C)C [Example 42, Methyl ((S)-1-((1R,2S,5S)-2-(((S)-1-amino-6,6-difluoro-1,2-dioxoheptan-3-yl)carbamoyl)-6,6,7,7-tetramethyl-3-azabicyclo[3.2.0]heptan-3-yl)-3,3-dimethyl-1-oxobutan-2-yl)carbamate] | 22 nM |
| COC(=O)N[C@H](C(=O)N1CC2(CCCCC2)C[C@H]1C(=O)N[C@@H](CCC(C)(F)F)C(=O)C(=O)NC1CC1)C(F)(F)F [Example 46, Methyl ((R)-3-((S)-3-(((S)-1-(cyclopropylamino)-6,6-difluoro-1,2-dioxoheptan-3-yl)carbamoyl)-2-azaspiro[4.5]decan-2-yl)-1,1,1-trifluoro-3-oxopropan-2-yl)carbamate] | 34 nM |
| COC(=O)N[C@H](C(=O)N1C[C@H](OC(F)(F)F)C(C)(C)[C@H]1C(=O)N[C@@H](CCC(C)(F)F)C(=O)C(=O)NC1CC1)C(C)(C)C [Example 48, Methyl ((S)-1-((2S,4R)-2-(((S)-1-(cyclopropylamino)-6,6-difluoro-1,2-dioxoheptan-3-yl)carbamoyl)-3,3-dimethyl-4-(trifluoromethoxy)pyrrolidin-1-yl)-3,3-dimethyl-1-oxobutan-2-yl)carbamate] | 45 nM |
